Results reported in ChEMBL document CHEMBL5120862, “Novel non-covalent LSD1 inhibitors endowed with anticancer effects in leukemia and solid tumor cellular models” (Eur J Med Chem, 2022).

Columns and labels:
[1] = target: Histone-lysine N-methyltransferase, H3 lysine-79 specific (Homo sapiens) (UniProt Q8TEK3); assay: Inhibition of […] (unknown origin) using [3H]SAM and HeLa oligo nucleosomes as substrates at 100 uM incubated for 1 hr relative to control
[2] = target: Histone-lysine N-methyltransferase EZH2 (Homo sapiens) (UniProt Q15910); assay: Inhibition of EZH2 (unknown origin) using [3H]SAM and chicken core histone as substrates at 100 uM incubated for 1 hr relative to control
[3] = target: T1, Histone-lysine N-methyltransferase EHMT2 (Homo sapiens, UniProt Q96KQ7); assay: Inhibition of G9a (unknown origin) assessed as reduction in substrate methylation using histone H3 and SAM as substrate measured after 15 to 60 mins by microfluidic capillary electrophoresis analysis
T1 sequence (Q96KQ7 whole entry): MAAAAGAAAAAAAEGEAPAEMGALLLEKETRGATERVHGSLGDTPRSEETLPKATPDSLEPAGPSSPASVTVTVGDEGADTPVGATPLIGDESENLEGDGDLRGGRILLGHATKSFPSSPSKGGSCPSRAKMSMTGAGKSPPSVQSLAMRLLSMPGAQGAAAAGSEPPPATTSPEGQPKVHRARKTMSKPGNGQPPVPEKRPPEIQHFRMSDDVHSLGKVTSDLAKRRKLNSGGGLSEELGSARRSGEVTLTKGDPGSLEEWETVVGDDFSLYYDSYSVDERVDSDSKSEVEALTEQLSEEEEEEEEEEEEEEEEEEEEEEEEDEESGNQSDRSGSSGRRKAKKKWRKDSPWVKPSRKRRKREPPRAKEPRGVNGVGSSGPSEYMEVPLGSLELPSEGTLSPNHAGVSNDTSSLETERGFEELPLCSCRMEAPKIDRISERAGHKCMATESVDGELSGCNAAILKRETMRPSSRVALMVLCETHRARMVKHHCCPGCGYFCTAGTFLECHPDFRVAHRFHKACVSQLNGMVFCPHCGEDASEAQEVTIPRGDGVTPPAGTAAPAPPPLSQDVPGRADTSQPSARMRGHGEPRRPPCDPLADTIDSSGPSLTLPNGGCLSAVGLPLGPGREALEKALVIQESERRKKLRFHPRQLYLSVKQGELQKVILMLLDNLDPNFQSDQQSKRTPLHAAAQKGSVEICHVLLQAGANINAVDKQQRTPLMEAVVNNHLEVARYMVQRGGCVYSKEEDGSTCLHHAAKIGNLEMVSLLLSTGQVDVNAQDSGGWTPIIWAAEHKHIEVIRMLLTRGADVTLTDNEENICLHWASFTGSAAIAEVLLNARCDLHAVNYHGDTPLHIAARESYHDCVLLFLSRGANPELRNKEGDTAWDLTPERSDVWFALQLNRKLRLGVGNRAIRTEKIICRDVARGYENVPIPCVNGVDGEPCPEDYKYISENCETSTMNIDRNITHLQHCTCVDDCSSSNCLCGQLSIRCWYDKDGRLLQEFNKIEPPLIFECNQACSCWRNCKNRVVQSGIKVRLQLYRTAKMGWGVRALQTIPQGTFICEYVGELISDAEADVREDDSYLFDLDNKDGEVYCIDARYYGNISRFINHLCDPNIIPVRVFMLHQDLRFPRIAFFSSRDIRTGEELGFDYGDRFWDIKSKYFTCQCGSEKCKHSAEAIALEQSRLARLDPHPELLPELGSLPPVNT

[4] = target: T2, LSD1/CoREST complex (Homo sapiens, UniProt O60341); assay: Inhibition of human LSD1/CoREST using histone H3 peptide as substrate by fluorescence polarization assay; format: protein-complex assay
[5] = target: T2, LSD1/CoREST complex; assay: Binding affinity to human LSD1/CoREST assessed as dissociation constant by competitive fluorescence polarization assay; format: protein-complex assay
[6] = system: THP-1; assay: Antiproliferative activity against human THP-1 cells assessed as inhibition of cell growth incubated for 24 hrs by CellTiter-Glo luminescent cell viability assay; format: functional, cell-based; conditions: THP-1, 24 h
[7] = system: THP-1; assay: Antiproliferative activity against human THP-1 cells assessed as inhibition of cell growth incubated for 144 hrs by CellTiter-Glo luminescent cell viability assay; format: functional, cell-based; conditions: THP-1, 144 h
[8] = system: THP-1; assay: Antiproliferative activity against human THP-1 cells assessed as inhibition of cell growth incubated for 72 hrs by CellTiter-Glo luminescent cell viability assay; format: functional, cell-based; conditions: THP-1, 72 h

Sequence of Histone-lysine N-methyltransferase EZH2 (Homo sapiens) (Q15910 whole entry, looked up): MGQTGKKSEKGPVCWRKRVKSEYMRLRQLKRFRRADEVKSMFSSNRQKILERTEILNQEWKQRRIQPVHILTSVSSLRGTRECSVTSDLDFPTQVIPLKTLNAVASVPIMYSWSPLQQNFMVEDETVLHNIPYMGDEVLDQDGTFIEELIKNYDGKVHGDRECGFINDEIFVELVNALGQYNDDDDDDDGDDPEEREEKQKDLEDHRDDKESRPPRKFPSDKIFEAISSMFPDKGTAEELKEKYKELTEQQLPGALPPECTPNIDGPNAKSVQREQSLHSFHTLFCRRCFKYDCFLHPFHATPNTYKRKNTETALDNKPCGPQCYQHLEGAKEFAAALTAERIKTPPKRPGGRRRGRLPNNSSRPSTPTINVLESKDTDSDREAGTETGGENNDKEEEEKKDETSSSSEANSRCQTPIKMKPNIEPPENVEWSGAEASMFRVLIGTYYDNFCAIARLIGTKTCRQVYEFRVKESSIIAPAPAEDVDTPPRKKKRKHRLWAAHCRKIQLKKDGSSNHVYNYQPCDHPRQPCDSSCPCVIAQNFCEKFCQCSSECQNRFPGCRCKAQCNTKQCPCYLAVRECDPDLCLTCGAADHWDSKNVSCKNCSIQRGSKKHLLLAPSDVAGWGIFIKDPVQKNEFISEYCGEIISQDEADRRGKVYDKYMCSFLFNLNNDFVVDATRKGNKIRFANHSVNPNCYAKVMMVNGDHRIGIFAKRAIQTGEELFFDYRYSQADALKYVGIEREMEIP
Sequence of Histone-lysine N-methyltransferase, H3 lysine-79 specific (Homo sapiens) (Q8TEK3 whole entry, looked up): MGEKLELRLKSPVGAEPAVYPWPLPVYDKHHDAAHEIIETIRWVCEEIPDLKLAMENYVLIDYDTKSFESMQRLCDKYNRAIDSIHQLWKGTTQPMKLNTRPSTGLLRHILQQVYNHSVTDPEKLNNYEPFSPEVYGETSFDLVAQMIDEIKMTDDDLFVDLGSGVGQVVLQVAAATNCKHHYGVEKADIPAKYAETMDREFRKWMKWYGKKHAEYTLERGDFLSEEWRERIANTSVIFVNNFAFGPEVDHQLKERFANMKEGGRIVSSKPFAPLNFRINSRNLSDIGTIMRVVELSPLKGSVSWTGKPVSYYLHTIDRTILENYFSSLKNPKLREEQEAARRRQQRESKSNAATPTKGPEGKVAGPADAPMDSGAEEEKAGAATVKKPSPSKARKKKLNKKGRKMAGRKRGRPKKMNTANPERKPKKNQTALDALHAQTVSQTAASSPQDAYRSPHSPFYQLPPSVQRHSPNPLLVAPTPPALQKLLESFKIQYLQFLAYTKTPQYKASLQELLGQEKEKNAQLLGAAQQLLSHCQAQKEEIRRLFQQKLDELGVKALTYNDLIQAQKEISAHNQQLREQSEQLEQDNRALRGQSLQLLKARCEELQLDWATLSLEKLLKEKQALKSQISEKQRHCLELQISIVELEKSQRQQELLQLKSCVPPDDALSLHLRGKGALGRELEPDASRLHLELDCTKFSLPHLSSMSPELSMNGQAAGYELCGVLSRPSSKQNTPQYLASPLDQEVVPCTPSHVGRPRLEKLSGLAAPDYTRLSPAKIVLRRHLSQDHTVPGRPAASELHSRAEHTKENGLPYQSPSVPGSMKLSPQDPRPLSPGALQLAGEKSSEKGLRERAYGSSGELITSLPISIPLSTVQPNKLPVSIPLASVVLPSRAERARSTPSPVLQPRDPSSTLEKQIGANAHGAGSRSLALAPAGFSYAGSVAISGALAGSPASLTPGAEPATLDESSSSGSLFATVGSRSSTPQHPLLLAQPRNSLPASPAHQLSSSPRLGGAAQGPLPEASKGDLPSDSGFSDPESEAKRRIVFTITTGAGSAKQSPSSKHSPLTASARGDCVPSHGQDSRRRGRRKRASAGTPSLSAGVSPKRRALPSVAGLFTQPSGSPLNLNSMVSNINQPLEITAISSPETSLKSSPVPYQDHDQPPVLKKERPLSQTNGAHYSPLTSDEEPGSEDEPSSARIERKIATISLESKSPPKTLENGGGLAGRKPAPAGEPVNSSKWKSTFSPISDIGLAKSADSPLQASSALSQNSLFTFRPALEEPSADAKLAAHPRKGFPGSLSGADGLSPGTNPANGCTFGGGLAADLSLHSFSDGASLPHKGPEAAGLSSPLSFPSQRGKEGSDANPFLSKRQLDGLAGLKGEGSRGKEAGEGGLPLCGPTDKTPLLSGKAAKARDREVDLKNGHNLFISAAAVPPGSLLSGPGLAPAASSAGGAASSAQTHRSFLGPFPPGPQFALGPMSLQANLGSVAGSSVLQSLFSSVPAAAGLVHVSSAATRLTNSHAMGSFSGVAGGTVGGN

`Nc1ncnc2c1ncn2[C@@H]1O[C@H](CSCC[C@H](N)C(=O)O)[C@@H](O)[C@H]1O` showed an inhibition [1] of 100% and an inhibition [2] of 84.2%.

For `COc1cc2nc(NCCCN3CCCC3)nc(NC3CCN(Cc4ccccc4)CC3)c2cc1OC`, the Ki [3] was 4010 nM, the Ki [4] was 183 nM and the Kd [5] was 82 nM.

`CCN(CC)CCCNc1nc(NC2CCN(Cc3ccccc3)CC2)c2cc(OC)c(OC)cc2n1` was tested, and the Ki [3] was 3940 nM, the Ki [4] was 175 nM and the Kd [5] was 86 nM.

`COc1cc2nc(NCCCCN(C)C)nc(NC3CCN(Cc4ccccc4)CC3)c2cc1OC` was tested, and the Ki [3] was 4240 nM and the Kd [5] was 112 nM.

`COc1cc2c(NCCNc3cccc4ccccc34)nc(NCCCN(C)C)nc2cc1OCc1ccccc1` showed a Ki [3] of 20200 nM and a Kd [5] of 127 nM.

Compound `COc1cc2nc(NCCCN(C)C)nc(NCC3CCN(Cc4ccccc4)CC3)c2cc1OC` has a Ki [3] of 22800 nM and a Kd [5] of 115 nM.

`COc1cc2nc(NCCCN(C)C)nc(NC3CCNCC3)c2cc1OC` gave a Ki [3] of 4830 nM and a Kd [5] of 1560 nM.

`COc1cc2nc(NCCCN(C)C)nc(NC3CCN(C(=O)c4ccccc4)CC3)c2cc1OC` gave a Ki [3] of 32900 nM and a Kd [5] of 975 nM.

In the case of `COc1cc2nc(NCCCCCN(C)C)nc(NC3CCN(Cc4ccccc4)CC3)c2cc1OC`, the Ki [3] is reported as 2790 nM and the Kd [5] is reported as 127 nM.

Compound `COc1cc2nc(NCCCN(C)C)nc(NC3CCN(C(=O)OC(C)(C)C)CC3)c2cc1OC` has an IC50 [6] of 870 nM, an IC50 [7] of 550 nM and a Ki [3] of 46900 nM. The Ki [4] was 205 nM, the Kd [5] was 82 nM and the IC50 [8] was 710 nM.

With `COc1cc2nc(NCCCN(C)C)nc(NCCNc3cccc4ccccc34)c2cc1OC` the Ki [3] was 41500 nM and the Kd [5] was 230 nM.

Compound `COc1cc2nc(NCCCN(C)C)nc(NC3CCN(Cc4ccccc4)C3)c2cc1OC` (stereo not given) has a Ki [3] of 8030 nM and a Kd [5] of 251 nM.

In the case of `COc1cc2nc(NCCCN(C)C)nc(NC3CCN(CCc4ccccc4)CC3)c2cc1OC`, the Ki [3] is reported as 3130 nM and the Kd [5] is reported as 147 nM.

`COc1cc2nc(NCCCN(C)C)nc(NC3CCN(Cc4cccc5ccccc45)CC3)c2cc1OC` gave a Ki [3] of 3100 nM, a Ki [4] of 212 nM and a Kd [5] of 84 nM.
